Values joined by “and” are separate entries in the source; they are usually repeats but may differ in a detail not shown here. Equal values may be shown once. Toxic doses and inconclusive results are not listed.
Tested on: B6C3F1 mice, ip Sarcoma M5076, median survival T/C
Assay: NCI In Vivo Anticancer Drug Screen. Data for tumor model Sarcoma M5076 (intraperitoneal) in B6C3F1 mice
Conditions: endpoint: median survival time, higher = longer survival
Summary of the method: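 Survival measured in treated (T) and vehicle control (C) mice with transplantable tumour; result given as T divided by C.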

[1] = dose: 25.0 mg/kg/injection, schedule: Q04DX004 (ip), vehicle: suspension in saline
[2] = dose: 25.0 mg/kg/injection, schedule: Q04DX004 (ip), vehicle: saline with Tween-80

Compound: CNc1nc(N(C)C)nc(N(C)C)n1
- T/C [1]: 92 % of control and 100 % of control
- T/C (dose: 50.0 mg/kg/injection, schedule: Q04DX004 (ip), vehicle: suspension in saline): 102 % of control and 109 % of control
- T/C (dose: 100.0 mg/kg/injection, schedule: Q04DX004 (ip), vehicle: suspension in saline): 113 % of control and 114 % of control
- T/C (dose: 200.0 mg/kg/injection, schedule: Q04DX004 (ip), vehicle: suspension in saline): 117 % of control and 120 % of control

Compound: NC(CCC(=O)NC(CS)C(=O)NCC(=O)O)C(=O)O (configuration not stated)
- T/C (dose: 75.0 mg/kg/injection, schedule: Q04DX004 (ip), vehicle: saline): 110 % of control
- T/C (dose: 150.0 mg/kg/injection, schedule: Q04DX004 (ip), vehicle: saline): 100 % of control
- T/C (dose: 300.0 mg/kg/injection, schedule: Q04DX004 (ip), vehicle: saline): 102 % of control
- T/C (dose: 600.0 mg/kg/injection, schedule: Q04DX004 (ip), vehicle: saline): 90 % of control
- T/C (dose: 1200.0 mg/kg/injection, schedule: Q04DX004 (ip), vehicle: saline): 90 % of control

Compound: O=C(O)CCCc1ccc(N(CCCl)CCCl)cc1
- T/C (dose: 2.0 mg/kg/injection, schedule: Q04DX004 (ip), vehicle: saline with Tween-80): 108 % of control
- T/C (dose: 4.0 mg/kg/injection, schedule: Q04DX004 (ip), vehicle: saline with Tween-80): 114 % of control and 123 % of control
- T/C (dose: 8.0 mg/kg/injection, schedule: Q04DX004 (ip), vehicle: saline with Tween-80): 118 % of control

Compound: COc1cc([C@@H]2c3cc4c(cc3[C@@H](OC3OC5COC(C)OC5C(O)C3O)[C@H]3COC(=O)[C@H]23)OCO4)cc(OC)c1O (some centres not stated)
- T/C (dose: 4.0 mg/kg/injection, schedule: Q04DX005 (ip), vehicle: saline): 150 % of control
- T/C (dose: 8.0 mg/kg/injection, schedule: Q04DX004 (ip), vehicle: saline): 157 % of control
- T/C (dose: 8.0 mg/kg/injection, schedule: Q04DX005 (ip), vehicle: saline): 154 % of control
- T/C (dose: 16.0 mg/kg/injection, schedule: Q04DX004 (ip), vehicle: saline): 153 % of control
- T/C (dose: 16.0 mg/kg/injection, schedule: Q04DX005 (ip), vehicle: saline): 198 % of control
- T/C (dose: 32.0 mg/kg/injection, schedule: Q04DX004 (ip), vehicle: saline): 172 % of control and 187 % of control
- T/C (dose: 32.0 mg/kg/injection, schedule: Q04DX005 (ip), vehicle: saline): 319 % of control

Compound: Nc1ccc2c(c1)CN1C(=O)c3ccccc3C1=N2
- T/C [2]: 104 % of control
- T/C (dose: 50.0 mg/kg/injection, schedule: Q04DX004 (ip), vehicle: saline with Tween-80): 110 % of control
- T/C (dose: 100.0 mg/kg/injection, schedule: Q04DX004 (ip), vehicle: saline with Tween-80): 116 % of control

Compound: Cc1ccc(/C=C/C(=O)/C=C/c2ccc(C)o2)o1
- T/C (dose: 50.0 mg/kg/injection, schedule: Q04DX004 (ip), vehicle: other): 101 % of control
- T/C (dose: 100.0 mg/kg/injection, schedule: Q04DX004 (ip), vehicle: other): 109 % of control
- T/C (dose: 200.0 mg/kg/injection, schedule: Q04DX004 (ip), vehicle: other): 108 % of control
- T/C (dose: 400.0 mg/kg/injection, schedule: Q04DX004 (ip), vehicle: other): 101 % of control
- T/C (dose: 800.0 mg/kg/injection, schedule: Q04DX004 (ip), vehicle: other): 95 % of control

Compound: CCCCCCCCCCCC1C(C#N)C(=O)NC(=O)C1C#N (configuration not stated)
- T/C (dose: 50.0 mg/kg/injection, schedule: Q04DX004 (ip), vehicle: Klucel + Tween-80): 104 % of control
- T/C (dose: 100.0 mg/kg/injection, schedule: Q04DX004 (ip), vehicle: Klucel + Tween-80): 93 % of control
- T/C (dose: 200.0 mg/kg/injection, schedule: Q04DX004 (ip), vehicle: Klucel + Tween-80): 96 % of control
- T/C (dose: 400.0 mg/kg/injection, schedule: Q04DX004 (ip), vehicle: Klucel + Tween-80): 93 % of control
- T/C (dose: 800.0 mg/kg/injection, schedule: Q04DX004 (ip), vehicle: Klucel + Tween-80): 93 % of control

Compound: O=c1c(O)c(O)c1=O.[NH2-].[NH2-].[NH2-].[NH2-].[NH2-].[Ru+5]
- T/C (dose: 6.25 mg/kg/injection, schedule: Q04DX004 (ip), vehicle: suspension in saline): 98 % of control
- T/C (dose: 12.5 mg/kg/injection, schedule: Q04DX004 (ip), vehicle: suspension in saline): 97 % of control
- T/C [1]: 98 % of control

Compound: CC1=C[P+](c2ccccc2)(c2ccccc2)C=C(c2ccccc2)O1
- T/C (dose: 1.25 mg/kg/injection, schedule: Q04DX004 (ip), vehicle: saline + alcohol): 110 % of control
- T/C (dose: 5.0 mg/kg/injection, schedule: Q04DX004 (ip), vehicle: saline + alcohol): 110 % of control
- T/C (dose: 10.0 mg/kg/injection, schedule: Q04DX004 (ip), vehicle: saline + alcohol): 117 % of control

Compound: O=S1(=O)C(c2ccc(F)cc2)=C(O)c2cc3ccccc3nc21
- T/C (dose: 17.19 mg/kg/injection, schedule: Q04DX004 (ip), vehicle: sodium bicarbonate): 97 % of control
- T/C (dose: 34.38 mg/kg/injection, schedule: Q04DX004 (ip), vehicle: sodium bicarbonate): 93 % of control
- T/C (dose: 68.75 mg/kg/injection, schedule: Q04DX004 (ip), vehicle: sodium bicarbonate): 93 % of control

Compound: O=C1CN2CCN3CC(=O)NC(=O)[C@H]3[C@H]2C(=O)N1
- T/C (dose: 28.13 mg/kg/injection, schedule: Q04DX004 (ip), vehicle: saline with Tween-80): 101 % of control
- T/C (dose: 56.25 mg/kg/injection, schedule: Q04DX004 (ip), vehicle: saline with Tween-80): 98 % of control
- T/C (dose: 112.5 mg/kg/injection, schedule: Q04DX004 (ip), vehicle: saline with Tween-80): 93 % of control
- T/C (dose: 225.0 mg/kg/injection, schedule: Q04DX004 (ip), vehicle: saline with Tween-80): 92 % of control
- T/C (dose: 450.0 mg/kg/injection, schedule: Q04DX004 (ip), vehicle: saline with Tween-80): 91 % of control

Compound: CCc1nc(N)nc(N)c1-c1ccc(Cl)c(N=[N+]=[N-])c1
- T/C (dose: 8.37 mg/kg/injection, schedule: Q04DX004 (ip), vehicle: water): 107 % of control
- T/C (dose: 16.75 mg/kg/injection, schedule: Q04DX004 (ip), vehicle: water): 108 % of control
- T/C (dose: 33.5 mg/kg/injection, schedule: Q04DX004 (ip), vehicle: distilled water + Tween-80): 102 % of control
- T/C (dose: 33.5 mg/kg/injection, schedule: Q04DX004 (ip), vehicle: water): 119 % of control
- T/C (dose: 67.0 mg/kg/injection, schedule: Q04DX004 (ip), vehicle: distilled water + Tween-80): 109 % of control
- T/C (dose: 134.0 mg/kg/injection, schedule: Q04DX004 (ip), vehicle: distilled water + Tween-80): 102 % of control
- T/C (dose: 536.0 mg/kg/injection, schedule: Q04DX004 (ip), vehicle: distilled water + Tween-80): 174 % of control

Compound: c1ccc2c(c1)oc1cc3c(cc12)n1nnnc1c1cccn31
- T/C (dose: 3.12 mg/kg/injection, schedule: Q04DX004 (ip), vehicle: saline with Tween-80): 90 % of control
- T/C (dose: 6.25 mg/kg/injection, schedule: Q04DX004 (ip), vehicle: saline with Tween-80): 95 % of control
- T/C (dose: 12.5 mg/kg/injection, schedule: Q04DX004 (ip), vehicle: saline with Tween-80): 90 % of control
- T/C [2]: 87 % of control

Compound: Nc1ncn(C2OC(CO)C(O)C2O)c(=O)n1 (configuration not stated)
- T/C (dose: 0.38 mg/kg/injection, schedule: Q01DX009 (ip), vehicle: saline): 100 % of control and 101 % of control
- T/C (dose: 0.75 mg/kg/injection, schedule: Q01DX009 (ip), vehicle: saline): 109 % of control and 114 % of control
- T/C (dose: 1.5 mg/kg/injection, schedule: Q01DX009 (ip), vehicle: saline): 112 % of control and 115 % of control
- T/C (dose: 25.0 mg/kg/injection, schedule: Q01DX009 (ip), vehicle: saline): 150 % of control
- T/C (dose: 50.0 mg/kg/injection, schedule: Q01DX009 (ip), vehicle: saline): 155 % of control and 159 % of control
- T/C (dose: 100.0 mg/kg/injection, schedule: Q01DX009 (ip), vehicle: saline): 172 % of control

Compound: C/C=C/C=C\C=C/C(O)CC(OP(=O)(O)O)C(C)(O)/C=C/C1CC=CC(=O)O1 (configuration not stated)
- T/C (dose: 0.75 mg/kg/injection, schedule: Q04DX004 (ip), vehicle: Klucel (hydroxypropylcellulose) (HPC)): 104 % of control
- T/C (dose: 1.5 mg/kg/injection, schedule: Q04DX004 (ip), vehicle: Klucel (hydroxypropylcellulose) (HPC)): 112 % of control
- T/C (dose: 1.5 mg/kg/injection, schedule: Q04DX004 (ip), vehicle: water): 106 % of control
- T/C (dose: 3.0 mg/kg/injection, schedule: Q04DX004 (ip), vehicle: Klucel (hydroxypropylcellulose) (HPC)): 111 % of control
- T/C (dose: 3.0 mg/kg/injection, schedule: Q04DX004 (ip), vehicle: water): 108 % of control and 111 % of control
- T/C (dose: 6.0 mg/kg/injection, schedule: Q04DX004 (ip), vehicle: Klucel (hydroxypropylcellulose) (HPC)): 112 % of control
- T/C (dose: 6.0 mg/kg/injection, schedule: Q04DX004 (ip), vehicle: water): 108 % of control and 113 % of control
- T/C (dose: 12.0 mg/kg/injection, schedule: Q04DX004 (ip), vehicle: water): 108 % of control
- T/C (dose: 24.0 mg/kg/injection, schedule: Q04DX004 (ip), vehicle: water): 112 % of control
